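Step 1: Grow cells in 96-well plates. Step 2: Expose to compound for 48 hours at 5 concentrations. Step 3: Interpolate endpoints linearly; if unreached, use highest concentration. GI50 is the concentration that inhibits growth by half.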 Active and inactive are the calls of the source. Cut-off read from the data, not from the text of the source: active = GI50 up to about 1.1 µM and inactive = higher.
Tests used:
Assay in all cases: DTP human tumour cell line panel, 48 h
DMS-114 = test system: DMS-114
KM-20L2 = test system: KM-20L2
M19-MEL = test system: M19-MEL
HOP-18 = test system: HOP-18
XF498 = test system: XF498
LXFL 529 = test system: LXFL 529
DMS-273 = test system: DMS-273
RXF 631 = test system: RXF 631

Measured: GI50

CCOC(=O)NC(=O)c1cn(C2OC(COC(=O)CCCCCCCCC(=O)OCC3OC(n4cc(C(=O)NC(=O)OCC)c(=O)[nH]c4=O)C4OC(C)(C)OC34)C3OC(C)(C)OC32)c(=O)[nH]c1=O (configuration not stated)
inactive: DMS-114 93.1 µM | KM-20L2 67.6 µM | M19-MEL 26.9 µM | HOP-18 > 100 µM | XF498 67.1 µM | LXFL 529 88.5 µM | DMS-273 60.1 µM | RXF 631 > 100 µM

CO[C@@]12CC(=O)/C(=C(O)\C=C\c3ccccc3)C(=O)[C@]1(OC)Cc1ccccc1O2
inactive: DMS-114 44.8 µM | KM-20L2 22.4 µM | M19-MEL 37.5 µM | HOP-18 35.6 µM | XF498 43 µM | LXFL 529 33.7 µM | RXF 631 30.3 µM

CCOC(=O)NC(=O)c1cn(CCOC(=O)CCCCCCCCC(=O)OCCn2cc(C(=O)NC(=O)OCC)c(=O)[nH]c2=O)c(=O)[nH]c1=O
inactive: DMS-114 > 100 µM | KM-20L2 > 100 µM | M19-MEL > 100 µM | HOP-18 > 100 µM | XF498 > 100 µM | LXFL 529 > 100 µM | DMS-273 > 100 µM | RXF 631 > 100 µM

Cn1cc(NC(=O)c2cc(NC(=O)CCCCCCCCC(=O)Nc3cc(C(=O)Nc4cc(C(=O)NCCC(N)N)n(C)c4)n(C)c3)cn2C)cc1C(=O)NCCC(=N)N
inactive: KM-20L2 19.7 µM | M19-MEL 16.6 µM | HOP-18 25.9 µM | XF498 28.6 µM | LXFL 529 27.2 µM | DMS-273 17.1 µM | RXF 631 26.9 µM

Cc1cccc(Cl)c1NC(=O)c1cccc([N+](=O)[O-])c1O
inactive: DMS-114 25.8 µM | KM-20L2 41.4 µM | HOP-18 28.5 µM | XF498 32.2 µM | LXFL 529 50.6 µM | DMS-273 37.2 µM | RXF 631 36.7 µM

From ChEMBL document CHEMBL1201862, “PubChem BioAssay data set” (2004)
